Like-named read-outs stand apart in the source and are kept apart here.
Legend:
[1] = test system: PANC-1 (human pancreatic cancer cell line); experiment: Cytotoxicity test by MTT assay, PANC-1; assay type: cell-based; settings: Homo sapiens, read-out: Cell viability (% inhibition)
Method: (§1) A cytotoxicity test was measured by MTT assay. Each cell line was cultured in a 96-well plate at a density of 1×10^4 cells/well. […] MTT (3-(4,5-dimethylthiazol-2-yl)-2,5-diphenyltetrazolium bromide) solution (5 mg/mL) was added to each well and reacted for 4 hours in an incubator. […] After reacting in an incubator for 30 minutes, the formation of formazan was quantified using a microplate reader at an absorbance of 540 nm. […] At this time, sunitinib was used as a control group. […] The human cancer cell lines used herein are MCF-7 (breast cancer), MDA-MB-231 (breast cancer), HT-29 (colon cancer), DU145 (prostate cancer), U937 (myeloid leukemia), A549 (lung cancer), PANC-1 (pancreatic cancer) and MIA PaCa-2 (pancreatic cancer).

[2] = test system: MCF-7 (human breast cancer cell line); experiment: Cytotoxicity test by MTT assay, MCF-7; assay type: cell-based; settings: Homo sapiens, read-out: Cell viability (% inhibition)
Method: as §1

Compound | cytotoxicity at 30 µM ([1]; PANC-1, 30 μM, 48 h) [%] | cytotoxicity at 30 µM ([2]; MCF7, MCF-7, 30 μM, 48 h) [%] | cytotoxicity at 30 µM ([1]; PANC-1, 48 h) [%] | cytotoxicity at 30 µM ([2]; MCF7, 48 h) [%]
Cc1nc2c(c(C)c1O)/C(=C/c1cccs1)C(=O)N2 [Compound I-29, (Z)-5-Hydroxy-4,6-dimethyl-3-(thiophen-2-ylmethylene)-1H-pyrrolo[2,3-b]pyridin-2(3H)-one] | 42.2 | 57.8 |  | 
Cc1ccsc1/C=C1\C(=O)Nc2nc(C)c(O)c(C)c21 [Compound I-30, (Z)-5-Hydroxy-4,6-dimethyl-3-((3-methylthiophen-2-yl)methylene)-1H-pyrrolo[2,3-b]pyridin-2(3H)-one] | 47.2 | 59 |  | 
Cc1nc2c(c(C)c1O)/C(=C/C1CCCCC1)C(=O)N2 [Compound I-05, (Z)-3-(Cyclohexylmethylene)-5-hydroxy-4,6-dimethyl-1H-pyrrolo[2,3-b]pyridin-2(3H)-one] | 49 | 10 |  | 
Cc1nc2c(c(C)c1O)/C(=C/c1ccccn1)C(=O)N2 [Compound I-21, (Z)-5-Hydroxy-4,6-dimethyl-3-(pyridin-2-ylmethylene)-1H-pyrrolo[2,3-b]pyridin-2(3H)-one] | 29.2 | 28.1 |  | 
Cc1nc2c(c(C)c1O)/C(=C/c1ccccc1[N+](=O)[O-])C(=O)N2 [Compound I-07, (Z)-5-Hydroxy-4,6-dimethyl-3-(2-nitrobenzylidene)-1H-pyrrolo[2,3-b]pyridin-2(3H)-one] | 27.8 | 23.9 |  | 
COc1ccccc1/C=C1\C(=O)Nc2nc(C)c(O)c(C)c21 [Compound I-12, (Z)-5-hydroxy-3-(2-methoxybenzylidene)-4,6-dimethyl-1H-pyrrolo[2,3-b]pyridin-2(3H)-one] | 10.2 | 30.7 |  | 
Cc1nc2c(c(C)c1O)/C(=C/c1ccccc1O)C(=O)N2 [Compound I-11, (Z)-5-Hydroxy-3-(2-hydroxybenzylidene)-4,6-dimethyl-1H-pyrrolo[2,3-b]pyridin-2(3H)-one] | 42 | 29.2 |  | 
Cc1nc2c(c(C)c1O)/C(=C/c1c[nH]cn1)C(=O)N2 [Compound I-34, (Z)-3-((1H-Imidazol-4-yl)methylene)-5-hydroxy-4,6-dimethyl-1H-pyrrolo[2,3-b]pyridin-2(3H)-one] |  |  | 4.5 | 4.1
Cc1nc2c(c(C)c1O)/C(=C/c1ccc(F)cc1)C(=O)N2 [Compound I-09, (Z)-3-(4-Fluorobenzylidene)-5-hydroxy-4,6-dimethyl-1H-pyrrolo[2,3-b]pyridin-2(3H)-one] | 51.8 | 48.3 |  | 
Cc1nc2c(c(C)c1O)/C(=C/c1ncc[nH]1)C(=O)N2 [Compound I-33, (Z)-3-((1H-Imidazol-2-yl)methylene)-5-hydroxy-4,6-dimethyl-1H-pyrrolo[2,3-b]pyridin-2(3H)-one] | 7.2 | 2.6 |  | 
CCC(/C=C1\C(=O)Nc2nc(C)c(O)c(C)c21)CC [Compound I-02, (Z)-3-(2-Ethylbutylidene)-5-hydroxy-4,6-dimethyl-1H-pyrrolo[2,3-b]pyridin-2(3H)-one] | 44.9 | 30.5 |  | 
Cc1ccc(/C=C2\C(=O)Nc3nc(C)c(O)c(C)c32)cc1 [Compound I-06, (Z)-5-Hydroxy-4,6-dimethyl-3-(4-methylbenzylidene)-1H-pyrrolo[2,3-b]pyridin-2(3H)-one] | 29.1 | 32.3 |  | 
CC(C)=C/C=C1\C(=O)Nc2nc(C)c(O)c(C)c21 [Compound I-03, (Z)-5-Hydroxy-4,6-dimethyl-3-(3-methylbut-2-enylidene)-1H-pyrrolo[2,3-b]pyridin-2(3H)-one] | 37.5 | 6.6 |  | 
COc1cc(/C=C2\C(=O)Nc3nc(C)c(O)c(C)c32)cc(OC)c1OC [Compound I-16, (Z)-5-Hydroxy-4,6-dimethyl-3-(3,4,5-trimethoxybenzylidene)-1H-pyrrolo[2,3-b]pyridin-2(3H)-one] | 40.6 | 41.2 |  | 
